{"source": "paper PMC5569891", "about": "(Chembiochem : a European journal of chemical biology, 2017)", "biological_target": "T1, HsSQS (Homo sapiens, UniProt P37268)", "T1 sequence (P37268 1-417)": "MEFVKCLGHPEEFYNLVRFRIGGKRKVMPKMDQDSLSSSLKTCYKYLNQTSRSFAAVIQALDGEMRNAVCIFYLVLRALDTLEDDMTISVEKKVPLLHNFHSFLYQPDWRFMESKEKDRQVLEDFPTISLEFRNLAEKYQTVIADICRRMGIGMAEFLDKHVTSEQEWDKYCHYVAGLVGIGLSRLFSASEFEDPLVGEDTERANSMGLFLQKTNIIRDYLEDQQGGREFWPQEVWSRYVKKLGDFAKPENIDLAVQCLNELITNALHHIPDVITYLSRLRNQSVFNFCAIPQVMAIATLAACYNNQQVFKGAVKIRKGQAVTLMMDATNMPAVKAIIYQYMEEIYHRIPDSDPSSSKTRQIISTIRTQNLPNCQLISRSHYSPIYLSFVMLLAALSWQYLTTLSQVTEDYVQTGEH", "assay": "LC-MS of products", "format": "biochemical", "details": "no NADPH", "data": [{"smiles": "CC(C)=CCC/C(C)=C/CC/C(C)=C/COP(=O)(O)OP(=O)(O)O", "note": "[compound 1, farnesyl diphosphate]", "values": [{"measurement": "LC-MS of products (PSPP)", "value": "LC-MS traces showing reaction products of NmHpnD+FPP (in blue) and HsSQS+FPP (in red)"}]}]}
